# Key:
# [1] = tested on: protein tyrosine phosphatase; experiment: In vitro inclusion of compound in WGA eluates, protein tyrosine phosphatase assay; type: biochemical, Zucker rats; conditions: 10 μM in vitro in WGA eluates from obese controls
# Description: Assays were performed at 25° C. using a slight modification of a protocol described by Ahmad and Goldstein, Am. […] Each tube contained 10 μl [^32 P]tyrosine-phosphorylated myelin basic protein (1×10^4 dpm; 2×10^3 dpm/pmol), 10 μl 5X PTP-ase buffer [250 mM HEPES (pH 7.0), 10 mM EDTA, 5 mM DTT], and 1-5 μg muscle fraction protein and water in a total volume of 40 μl. Consumption of substrate (phosphorylated myelin basic protein) was limited to 20%. […] The assay differs from that of Ahmed and Goldstein in that the amount of phosphorylated substrate (myelin basic protein) was lower and its specific activity higher, similar to the skeletal muscle PTPase assay described by Tanowitz, et al., Brain Res., 712:299-306 (1996).
# (§1) PTPase was measured in skeletal muscle cytosolic fractions, particulate fractions, and in partially purified insulin receptors. To assay PTPase activity in partially purified insulin receptors the WGA eluates were dialyzed overnight against 0.1% β-mercaptoethanol and 20 mM HEPES, pH 7.2, to eliminate phosphatase inhibitors.
# [2] = target: T1, human A3 adenosine receptor (Homo sapiens, UniProt P0DMS8); experiment: Binding constants against cloned and expressed human adenosine receptor subtypes (A3); conditions: read-out: Binding constant (KD) A3
# T1 construct: expressed in transfected cells
# T1 sequence (P0DMS8 1-318): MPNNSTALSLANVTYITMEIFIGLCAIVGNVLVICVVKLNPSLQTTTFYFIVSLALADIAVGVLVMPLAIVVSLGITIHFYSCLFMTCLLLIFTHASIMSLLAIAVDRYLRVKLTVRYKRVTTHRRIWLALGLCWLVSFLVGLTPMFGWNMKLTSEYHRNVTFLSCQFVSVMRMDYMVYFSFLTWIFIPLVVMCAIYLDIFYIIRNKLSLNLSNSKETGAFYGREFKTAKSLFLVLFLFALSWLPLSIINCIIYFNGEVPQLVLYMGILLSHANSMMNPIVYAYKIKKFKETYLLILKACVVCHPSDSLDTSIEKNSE
# [3] = tested on: insulin receptor kinase; experiment: Insulin receptor kinase assay of partially purified receptors from gastrocnemius of treated rats; type: in vivo, Zucker rats
# Description: BWA1433 was administered as previously described, in a suspension of 7 mg/ml methyl cellulose containing 10 mg/ml BWA1433. BWA1433 was supplied as a free acid from Glaxo-Wellcome but was adjusted to pH 8.0 with NaOH prior to use. In this way, treated animals were given 12 mg/kg BWA1433 every 12 hours (±1 hour) for one week.
# Insulin receptors were prepared from 100 mg frozen powdered skeletal muscle using lectin affinity chromatography, as taught by Caro, J. Clin. Invest., 79:1330-1337 (1987). Supernatants from detergent (Triton X-100) solubilized muscle were cycled over 0.3 ml bed volume wheat germ agglutinin agarose (WGA) columns, after which the columns were washed thoroughly overnight. The receptors were eluted in one ml of buffer containing 25 mM N-[2-hydroxyethyl]piperazine-N'-[2-ethanesulfonic acid] (HEPES) (pH 7.6), 55 mM NaCl, 11.25 mM KCI, 0.5 mM CaCl2, 0.5 mM MgCl2, 0.5 mM Na3 VO4, 5 mM NaF, 10% glycerol, 0.05% Triton X-100, and 300 mM-acetyl-D-glucosamine. WGA column eluates were aliquoted to avoid multiple freezing/thawing and were stored at -70° C. until use. Columns were thoroughly washed (50-100 bed volumes wash buffer) and reused. Receptors were quantitated by assaying protein and immunoblotting to specifically assess insulin receptor protein.
# Insulin receptor kinase activity was determined using a modification of previously published techniques by Debant, et al., Am. […] Papers were blotted, oven-dried, and radioactivity determined by scintillation counting using a Beckman Model LS3801 scintillation counter. Activity was calculated in mUnits receptor kinase/mg of WGA eluate protein. […]
# Insulin receptor kinase activity was measured 1) in the basal state in non-insulin-injected animals, 2) in insulin-injected animals without added insulin, and 3) in receptors isolated from insulin injected animals but stimulated in vitro with 1 μM exogenous insulin. […] Intravenous insulin-injection increased the observed activity of the insulin receptor kinase 7- to 12-fold when measured in the absence of insulin added in vitro (FIG. 4A). […]
# [4] = tested on: protein tyrosine phosphatase; experiment: Protein tyrosine phosphatase assay of gastrocnemius fractions and insulin receptor preparations of treated rats; type: in vivo, Zucker rats
# Description: Approximately 100 mg frozen tissue were homogenized in 5 ml buffer containing 10 mM NaHCO3, (pH 7.4), 250 mM sucrose, 0.1 mg/ml aprotinin, 0.05 mg/ml leupeptin, 1 mM phenylmethysulfonyl fluoride (PMSF), and 5 mM NaN3 (CHB buffer) and then sonicated for 1 min on ice with three 20-sec bursts. The sonicate was centrifuged at 1,200 g for 10 min at 4° C. Three ml of CHB medium was added to the pellet which was then rehomogenized for 1 min and respun. The suspensions of the two pellets were combined, rehomogenized, and respun at 10,000 g for 10 minutes at 4° C. The 10,000 g pellet was discarded and the supernatant was transferred to a cold Ti75 ultracentrifuge tube and spun at 270,000 g for 90 minutes. The supernatant of the high speed centrifugation (cytosol) was used for PTPase assays. The 270,000 g pellet was resuspended in 0.500 ml buffer containing 250 mM sucrose, 20 mM HEPES (pH 7.4), 0.6 M KC1, and 1% Triton X-100. A 27 gauge syringe needle was used to completely solubilize the pellet. The supernatant was spun at 12,000 rpm for 20 min and the resulting supernatant, termed particulate fraction was then dialyzed overnight at 4° C. against 20 mM HEPES (pH 7.2) and 0.1% β-mercaptoethanol. Samples were stored at -70° C. until used for PTPase assays.
# Each tube contained 10 μl [^32 P]tyrosine-phosphorylated myelin basic protein (1×10^4 dpm; 2×10^3 dpm/pmol), 10 μl 5X PTP-ase buffer [250 mM HEPES (pH 7.0), 10 mM EDTA, 5 mM DTT], and 1-5 μg muscle fraction protein and water in a total volume of 40 μl. Consumption of substrate (phosphorylated myelin basic protein) was limited to 20%.
# One unit of PTPase activity is defined as the amount of enzyme releasing 1 nmol phosphate/min from myelin basic protein.
# as §1
# [5] = target: T2, human A2A adenosine receptor (Homo sapiens, UniProt P29274); experiment: Binding constants against cloned and expressed human adenosine receptor subtypes (A2A); conditions: read-out: Binding constant (KD) A2A
# T2 construct: expressed in transfected cells
# T2 sequence (P29274 whole entry): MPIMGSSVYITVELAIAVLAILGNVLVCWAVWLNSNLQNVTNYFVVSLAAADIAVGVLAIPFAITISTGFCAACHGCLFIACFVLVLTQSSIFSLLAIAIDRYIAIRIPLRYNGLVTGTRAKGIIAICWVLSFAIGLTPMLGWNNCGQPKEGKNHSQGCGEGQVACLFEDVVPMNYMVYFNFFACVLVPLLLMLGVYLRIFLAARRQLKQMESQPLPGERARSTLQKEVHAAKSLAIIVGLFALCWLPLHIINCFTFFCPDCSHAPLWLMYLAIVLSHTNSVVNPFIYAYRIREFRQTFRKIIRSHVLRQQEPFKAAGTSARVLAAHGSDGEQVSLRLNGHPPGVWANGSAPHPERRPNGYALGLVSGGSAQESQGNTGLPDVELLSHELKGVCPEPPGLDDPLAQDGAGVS
# [6] = Zucker rats; cited from earlier work
smiles,measurement,setting,value
"CCCn1c(=O)c2[nH]c(-c3ccc(C=CC(=O)O)cc3)nc2n(CCC)c1=O [BWA1433, 1,3-dipropyl-8-(p-acrylic)phenylxanthine]",Effect on protein tyrosine phosphatase activity,[1],no effect
same,Kd,[2],30 nM
same,Insulin receptor kinase activity,"[3]; lean rats, insulin in vivo plus 1 μM insulin in vitro",no significant influence
same,Insulin receptor kinase activity,"[3]; obese animals, insulin injected in vivo, no insulin added in vitro",small but significant increase
same,Insulin receptor kinase activity,"[3]; obese rats, insulin in vivo plus 1 μM insulin in vitro",increased
same,Phosphatase activity in cytosolic fractions of gastrocnemius,"[4]; between groups (lean, obese, ± treatment)",No differences
same,PTPase activity in particulate fraction of gastrocnemius,[4]; obese Zucker rats,reduction
same,Reduction of phosphatase activity in partially-purified insulin receptor preparations compared to untreated controls,[4]; obese rats,27%
same,Kd,[5],190 nM
same,Glucose tolerance,[6],improves glucose tolerance

# From patent US6060481A, “Method for improving insulin sensitivity using an adenosine receptor antagonist” (priority 1999, dated 2000)
